# Source: US12564595B2, “Prophylactic and therapeutic pharmaceutical agent for HIV infectious diseases characterized by comprising combination of integrase inhibitor and anti-HIV agent” (Shionogi & Co., Ltd., priority 2019, dated 2026)
# Like-named read-outs stand apart in the source and are kept apart here.
# How the values were obtained:
# [1] = system: HIV; experiment: microbe, parasite or virus in culture; assay type: cell-based; conditions: Human immunodeficiency virus 1, MT4, 96 h, read-out: EC50 (50% HIV inhibition concentration), MT-4 cells, HIV, cultured four days, MTT
# Procedure: A serial dilution series of test samples was prepared in 96-well microplates (50 μL/well).
# 100 μL/well in each case were dispensed onto plates having test samples of 2.5×10^5/mL MT-4 cell suspension, and HIV virus solution was then dispensed thereto in the amount of 50 μL/well. Mixing was performed using a plate mixer and culturing was performed for four days in a CO2 incubator. MTT (3-(4,5-dimethylthiazol-2-yl)-2,5-diphenyltetrazolium bromide) liquid was dispensed into each well in the amount of 30 μL in each case. The reaction was conducted for 1 h in a CO2 incubator. 150 μL of supernatant were removed from each well, taking care not to aspirate any cells. 150 μL of cell solution were added, and thorough mixing was performed with a plate mixer until all the cells had been dissolved. The optical absorbance of the mixed plates was measured at two wavelengths: 560 nm/690 nm, with a microplate reader.
# [2] = system: HIV mutant strain 1 (E138K/G140S/Q148H/N155H); experiment: Test Example 2: resistance evaluation test (HeLa-CD4 reporter), mutant strain 1; assay type: cell-based; conditions: FC=EC50 of mutant strain/EC50 of wild strain; HeLa-CD4 cells
# Procedure: (§1) A serial dilution series of test samples in 96-well microplates was prepared (50 […]).
# (§2) 2.5×10^4/mL of HeLa-CD4 cell suspension was dispensed into each of the microplates containing test sample, in the amount of 100 μL/well, and HIV virus liquid (wild strain and mutant strain) was then dispensed in an amount of 50 μL/well. Mixing was performed using a plate mixer and culturing was performed for three days in a CO2 incubator. After removing the cultured supernatant of each well by suction, 100 μL of the cell solution buffer in the reporter measurement kit was dispensed thereto, and freezing was conducted in a refrigerator (−80° C.). The plates frozen in the refrigerator were defrosted at room temperature, then mixed using a plate mixer and centrifuged for 5 min at 1,200 rpm. The supernatant of each well was divided to 96-well microplates (BLACK) in the amount of 20 μL in each case. The chemiluminescence reagent in the reporter assay kit was dispensed in the amount of 100 μL in each case, and, after reacting for about 1 h at room temperature, the amount of luminescence was measured using a MicroBeta TRILUX.
# (§3) The degree of resistance (fold change (FC)) of each mutant strain was also calculated using the following formula. FC=EC50 of mutant strain/EC50 of wild strain (Results)
# (§4) The results of the example compounds relating to formula (I) of (A) are shown below. The […] in respect of mutant strain 1 (E138K/G140S/Q148H/N155H) and the FC in respect of mutant strain 2 (E92Q/E138T/G140S/Q148H) are shown in the Table.
# [3] = system: HIV mutant strain 2 (E92Q/E138T/G140S/Q148H); experiment: Test Example 2: resistance evaluation test (HeLa-CD4 reporter), mutant strain 2; assay type: cell-based; conditions: FC=EC50 of mutant strain/EC50 of wild strain; HeLa-CD4 cells
# Procedure: as §1, §2, §3, §4
# [4] = system: HIV; experiment: Test Example 3: test for confirmation of combined use effect; assay type: cell-based; design: key to D value (dosewise additivity value): <-0.1 synergy, -0.1 to 0.1 additive, >0.1 antagonism
# Text: The two compounds in respect of which the effect of combined use was desired to be examined were mixed in various ratios, and the anti-HIV activity (50% HIV inhibiting concentration) for each combination was found by the method of test example 1. […] A brief description of the method of calculating the D value is given below.
# The D value that is found by evaluating the anti-HIV activity of respective combinations of M concentrations of compound X1 and N concentrations of compound X2 is calculated by the following mathematical expression 1.
# The effect of combined use was evaluated in terms of the D value in accordance with the following criteria • −0.5 to −0.2: strong synergetic effect • −0.2 to −0.1: weak synergetic effect • […]: additive synergetic effect • 0.1 to 0.2: weak antagonism • 0.2 to 0.5: strong antagonism
# [5] = Test Example 8: metabolic stability test; assay type: in vitro ADME, human; conditions: pooled human liver microsomes, 30 min at 37° C., NADPH, compound concentration 0.5 μmol/L
# Procedure: The extent of metabolization of the compound according to the present invention in the liver was evaluated by reacting commercially available pooled human liver microsomes with the compound according to the present invention for a fixed time and calculating the remaining percentage by comparing the reaction sample with an unreacted sample.
# The reaction (oxidative reaction) was conducted for 0 min or 30 min at 37° C. in the presence of 1 mmol/L of NADPH, in a 0.2 mL buffer solution containing 0.5 mg of human liver microsome protein/mL (50 mmol/L Tris-HCl pH 7.4, 150 mmol/L potassium chloride, 10 mmol/L magnesium chloride). After the reaction, 50 μL of reaction liquid were added to 100 μL of methanol/acetonitrile=1/1 (v/v) solution, mixed, and centrifuged for 15 minutes at 3000 rpm. The compound according to the present invention in the centrifuged supernatant was quantified using LC/MS/MS or solid phase extraction (SPE)/MS; the residual amount of the compound according to the present invention after the reaction was calculated, taking the amount of the compound at the 0 min reaction point as 100%.
# [6] = compounds of formula (I) of (A)
# [7] = combination with compound (B) Compound C (CAI)
# [8] = combination with compound (B) Darunavin (PI)
# [9] = combination with compound (B) Darunavir (PI)
# [10] = combination with compound (B) GS-6207 (CAI)
# [11] = combination with compound (B) GSK2838232 (maturation inhibitor)
# [12] = combination with compound (B) Lilpiperine (polymerase inhibitor)
# [13] = combination with compound (B) Ramipzin (3TC) (polymerase inhibitor)
# [14] = combination with compound (B) Rilpivirine (polymerase inhibitor)
# [15] = combination with compound (B) I′-189 (INLAI)
# [16] = combination with compound (B) VM-1500 (polymerase inhibitor)
# [17] = compounds of formula (I′) of (B)
Compound,"EC50 [1, 6]",FC in respect of mutant strain 1 (E138K/G140S/Q148H/N155H) [2],FC in respect of mutant strain 2 (E92Q/E138T/G140S/Q148H) [3],Remaining percentage [5],"EC50 [1, 17]",other results
CC(C)N1C(=O)c2c(O)c(=O)c(C(=O)NCc3ccc(F)cc3F)cn2N2CCCC[C@@H]12 [Compound I-004],2.5 nM,–,–,–,–,–
CC(C)N1C(=O)c2c(O)c(=O)c(C(=O)NCc3c(F)cc(F)cc3F)cn2N2CCOC[C@@H]12 [II-022],0.39 nM,–,–,–,–,–
C[C@H]1C[C@H]2N(C)C(=O)c3c(O)c(=O)c(C(=O)NCc4cccc(Cl)c4F)cn3N2C1 [II-036],–,15,7.9,97.4%,–,"D value (dosewise additivity value) [4, 7]: 0.032; effect of combined use [4, 7]: Additive (−0.1 to −0.1: additive synergetic effect); D value (dosewise additivity value) [4, 8]: −0.115; effect of combined use [4, 9]: Weak synergy (−0.2 to −0.1: weak synergetic effect); D value (dosewise additivity value) [4, 10]: −0.117; effect of combined use [4, 10]: Weak synergy (−0.2 to −0.1: weak synergetic effect); D value (dosewise additivity value) [4, 11]: 0.021; effect of combined use [4, 11]: Additive (−0.1 to −0.1: additive synergetic effect); effect of combined use [4, 12]: Additive (−0.1 to −0.1: additive synergetic effect); D value (dosewise additivity value) [4, 13]: −0.184; effect of combined use [4, 13]: Weak synergy (−0.2 to −0.1: weak synergetic effect); D value (dosewise additivity value) [4, 14]: −0.044"
CCN1C(=O)c2c(O)c(=O)c(C(=O)NCc3ccc(F)cc3F)cn2N2CC[C@@H](C)C[C@@H]12 [II-068],0.25 nM,7,4.2,82.9%,–,–
CCN1C(=O)c2c(O)c(=O)c(C(=O)NCc3cccc(C(F)(F)F)c3F)cn2N2CCCC[C@@H]12 [II-074],18 nM,–,–,–,–,–
CCN1C(=O)c2c(O)c(=O)c(C(=O)NCc3ccc(C#N)cc3)cn2N2CCCC[C@@H]12 [II-090],18 nM,–,–,–,–,–
CN1C(=O)c2c(O)c(=O)c(C(=O)NCc3cccc(Cl)c3F)cn2N2CCCC[C@@H]12 [II-092],–,6.8,7.7,101%,–,"D value (dosewise additivity value) [4, 7]: 0.056; effect of combined use [4, 7]: Additive (−0.1 to −0.1: additive synergetic effect); D value (dosewise additivity value) [4, 8]: −0.117; effect of combined use [4, 9]: Weak synergy (−0.2 to −0.1: weak synergetic effect); D value (dosewise additivity value) [4, 10]: −0.093; effect of combined use [4, 10]: Additive (−0.1 to −0.1: additive synergetic effect); D value (dosewise additivity value) [4, 11]: 0.000; effect of combined use [4, 11]: Additive (−0.1 to −0.1: additive synergetic effect); effect of combined use [4, 12]: Additive (−0.1 to −0.1: additive synergetic effect); D value (dosewise additivity value) [4, 13]: −0.118; effect of combined use [4, 13]: Weak synergy (−0.2 to −0.1: weak synergetic effect); D value (dosewise additivity value) [4, 14]: −0.022"
CCN1C(=O)c2c(O)c(=O)c(C(=O)NCc3c(F)cc(F)cc3F)cn2N2[C@H](COC)CC[C@@H]12 [II-093],0.22 nM,49,25,96.1%,–,–
CCN1C(=O)c2c(O)c(=O)c(C(=O)NCc3c(F)cc(F)cc3F)cn2N2C[C@@H](C)CC[C@@H]12 [II-096],–,6.4,8.9,90.7%,–,"D value (dosewise additivity value) [4, 7]: 0.065; effect of combined use [4, 7]: Additive (−0.1 to −0.1: additive synergetic effect); D value (dosewise additivity value) [4, 8]: −0.130; effect of combined use [4, 9]: Weak synergy (−0.2 to −0.1: weak synergetic effect); D value (dosewise additivity value) [4, 10]: −0.125; effect of combined use [4, 10]: Weak synergy (−0.2 to −0.1: weak synergetic effect); D value (dosewise additivity value) [4, 11]: 0.001; effect of combined use [4, 11]: Additive (−0.1 to −0.1: additive synergetic effect); D value (dosewise additivity value) [4, 15]: 0.070; effect of combined use [4, 15]: Additive (−0.1 to −0.1: additive synergetic effect); effect of combined use [4, 12]: Additive (−0.1 to −0.1: additive synergetic effect); D value (dosewise additivity value) [4, 13]: −0.177; effect of combined use [4, 13]: Weak synergy (−0.2 to −0.1: weak synergetic effect); D value (dosewise additivity value) [4, 14]: −0.035; D value (dosewise additivity value) [4, 16]: −0.115; effect of combined use [4, 16]: Weak synergy (−0.2 to −0.1: weak synergetic effect)"
CN1C(=O)c2c(O)c(=O)c(-c3nnc(Cc4ccc(F)cc4F)s3)cn2N2CCOC[C@@H]12 [II-102],1.3 nM,25,22,106%,–,–
CCN1C(=O)c2c(O)c(=O)c(-c3nnc(Cc4c(F)cc(F)cc4F)s3)cn2N2C[C@@H](C)C[C@@H]12 [II-112],1.9 nM,4.7,7,90.5%,–,–
CCN1C(=O)c2c(O)c(=O)c(C(=O)NCc3ccc(F)cc3F)cn2N2[C@@H](C)c3cc(F)ccc3[C@@H]12 [II-140],0.67 nM,–,–,–,–,–
CCN1C(=O)c2c(O)c(=O)c(C(=O)NCc3ccc(F)cc3F)cn2N2C[C@@H]3CCC[C@@H](O3)[C@@H]12 [II-150],–,26,16,98.6%,–,–
CCN1C(=O)c2c(O)c(=O)c(C(=O)NCc3ccc(F)nc3F)cn2N2C[C@@H]3CC[C@@H](O3)[C@@H]12 [II-152],–,36,25,105%,–,–
Cc1ccc(-c2c([C@H](OC(C)(C)C)C(=O)O)c(C)c3c4c2cc(C)n4CCN3C)cc1 [I′-001],–,–,–,–,0.69 nM,–
Cc1ccc(-c2c([C@H](OC(C)(C)C)C(=O)O)c(C)c3c4c2cc(C)n4CCN3CCN(C)C)cc1 [I′-027],–,–,–,–,9.9 nM,–
COCC[C@H]1Cn2c(C)cc3c(-c4ccc(Cl)cc4)c([C@H](OC(C)(C)C)C(=O)O)c(C)c(c32)N1S(C)(=O)=O [I′-043],–,–,–,–,1.4 nM,–
COc1cnc(N2CCn3c(C)cc4c(-c5ccc(C)cc5)c([C@H](OC(C)(C)C)C(=O)O)c(C)c2c43)nc1 [I′-189],–,–,–,–,1.6 nM,–
Cc1ccc(-c2c([C@H](OC(C)(C)C)C(=O)O)c(C)c3c4c2cc(C)n4CCN3c2ncc(OCCN(C)C)cn2)cc1 [I′-220],–,–,–,–,5.9 nM,–
Cc1ccc(-c2c([C@H](OC(C)(C)C)C(=O)O)c(C)c3c4c2cc(C)n4CCN3c2nc3c(s2)CCN(C)C3)cc1 [I′-292],–,–,–,–,2.5 nM,–
Cc1ccc(-c2c([C@H](OC(C)(C)C)C(=O)O)c(C)c3c4c2cc(C)n4CCN3c2ncc(CN(C)C)cn2)cc1 [I′-304],–,–,–,–,4.1 nM,–
